# Columns and labels:
# HL-60 [1] = test: Cytotoxicity against human HL-60 cells assessed as reduction in cell viability incubated for 72 hr by MTT assay; format: functional, cell-based; settings: HL-60, 72 h
# Plasmodium falciparum [2] = test: Antiplasmodial activity against artemisinin-resistant Plasmodium falciparum Dd2 R539T assessed as reduction in parasite growth incubated for 3 days by ELISA analysis; format: functional, organism-based; settings: 72 h
# NALM-6 = test: Cytotoxicity against human NALM-6 cells assessed as reduction in cell viability incubated for 72 hrs by MTT assay; format: functional, cell-based; settings: NALM-6, 72 h
# HL-60 [3] = test: Cytotoxicity against human HL-60 cells assessed as reduction in cell viability incubated for 72 hrs by Cell-titer Glo based analysis; format: functional; settings: HL-60, 72 h
# [4] = target: T1, Protein deacetylase HDAC6 (Homo sapiens, UniProt Q9UBN7); test: Inhibition of human recombinant HDAC6 using ZMAL (Z-Lys(Ac)-AMC as fluorogenic substrate pre-incubated for 30 mins followed by substrate addition and measured for 1 hr by Fluorescence based analysis
# T1 sequence (Q9UBN7 whole entry): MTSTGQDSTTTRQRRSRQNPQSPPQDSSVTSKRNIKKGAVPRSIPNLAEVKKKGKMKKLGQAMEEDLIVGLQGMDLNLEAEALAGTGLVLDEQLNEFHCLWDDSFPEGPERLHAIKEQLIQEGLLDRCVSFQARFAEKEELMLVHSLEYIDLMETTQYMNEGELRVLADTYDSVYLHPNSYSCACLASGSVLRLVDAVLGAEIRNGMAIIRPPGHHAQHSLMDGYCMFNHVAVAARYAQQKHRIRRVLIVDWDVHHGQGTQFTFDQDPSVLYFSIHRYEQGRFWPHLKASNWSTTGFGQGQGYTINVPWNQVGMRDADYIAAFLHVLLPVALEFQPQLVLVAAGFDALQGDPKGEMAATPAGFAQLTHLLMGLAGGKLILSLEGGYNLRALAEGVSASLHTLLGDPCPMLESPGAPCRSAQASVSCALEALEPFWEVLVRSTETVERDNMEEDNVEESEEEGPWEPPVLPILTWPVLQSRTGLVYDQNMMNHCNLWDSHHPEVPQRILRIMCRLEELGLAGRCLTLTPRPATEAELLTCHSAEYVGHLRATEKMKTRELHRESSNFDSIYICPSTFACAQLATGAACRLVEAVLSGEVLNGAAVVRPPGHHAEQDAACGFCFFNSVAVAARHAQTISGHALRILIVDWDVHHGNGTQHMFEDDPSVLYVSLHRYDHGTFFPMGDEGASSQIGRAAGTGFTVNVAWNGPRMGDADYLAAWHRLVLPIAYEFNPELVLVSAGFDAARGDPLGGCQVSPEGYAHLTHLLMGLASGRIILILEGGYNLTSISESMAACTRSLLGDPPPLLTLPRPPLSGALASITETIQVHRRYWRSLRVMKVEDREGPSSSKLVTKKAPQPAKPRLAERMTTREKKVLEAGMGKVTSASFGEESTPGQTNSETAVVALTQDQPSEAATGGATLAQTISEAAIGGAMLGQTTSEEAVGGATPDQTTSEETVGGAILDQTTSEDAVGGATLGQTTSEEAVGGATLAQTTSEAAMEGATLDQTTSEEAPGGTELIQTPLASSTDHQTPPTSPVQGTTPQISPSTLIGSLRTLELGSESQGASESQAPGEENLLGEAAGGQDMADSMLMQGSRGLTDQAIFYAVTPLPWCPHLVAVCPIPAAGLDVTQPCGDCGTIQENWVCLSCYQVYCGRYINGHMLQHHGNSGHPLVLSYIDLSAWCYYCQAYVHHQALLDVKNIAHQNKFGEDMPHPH
# Plasmodium falciparum [5] = test: Antiplasmodial activity against Plasmodium falciparum Dd2 assessed as reduction in parasite growth incubated for 3 days by ELISA analysis; format: functional, organism-based; settings: Dd2, 72 h
# K562 [6] = test: Cytotoxicity against human K562 cells assessed as reduction in cell viability incubated for 72 hrs by Cell-titer Glo based analysis; format: functional; settings: K562, 72 h
# HPBALL = test: Cytotoxicity against human HPBALL cells assessed as reduction in cell viability incubated for 72 hrs by MTT assay; format: functional, cell-based
# MOLM-13 = test: Antiproliferative activity against human MOLM-13 cells assessed as reduction in cell viability incubated for 72 hrs by MTT assay; format: functional, cell-based; settings: MOLM-13, 72 h
# Plasmodium falciparum [7] = test: Antiplasmodial activity against Plasmodium falciparum 3D7 assessed as reduction in parasite growth incubated for 3 days by ELISA analysis; format: functional, organism-based; settings: 3D7, 72 h
# RPMI-8226 [8] = test: Antitumor activity against human RPMI-8226 cells xenografted in BALB/c-nu mouse assessed as reduction in tumor growth by measuring relative increment ratio T/C at 50 mg/kg/day, ip administered for 19 days and measured every 3 days by vernier caliper relative to control; format: functional; settings: time 19 day
# U-266 = test: cells; format: functional, cell-based; settings: Homo sapiens, U-266, 48 h
# [9] = Metabolic stability in mouse liver microsomes assessed as half life at 1 uM incubated in presence of NADPH by LC-MS/MS analysis; format: ADME, Microsome
# [10] = Cytotoxicity against HEK293 cells assessed as inhibition of cell growth incubated for 48 hrs by MTT assay; format: toxicity, cell-based; settings: human
# [11] = target: T1, Protein deacetylase HDAC6; test: Inhibition of HDAC6 (unknown origin) using Boc-Lys(acetyl)-AMC as substrate preincubated for 5 mins followed by substrate addition and measured after 30 mins by fluorescence based assay
# RPMI-8226 [12] = test: Antiproliferative activity against human RPMI-8226 cells assessed as inhibition of cell growth incubated for 48 hrs by MTT assay; format: functional, cell-based; settings: RPMI-8226, 48 h
# MM1.S = test: Antiproliferative activity against human MM1.S cells assessed as inhibition of cell growth incubated for 48 hrs by MTT assay; format: functional, cell-based
# [13] = Cytotoxicity against human L02 cells assessed as inhibition of cell growth incubated for 48 hrs by MTT assay; format: toxicity, cell-based
# HepG2 [14] = test: animal or person; format: functional, Homo sapiens; settings: Mus musculus, HepG2, po, 384 h, route ig, time 16 day
# HepG2 [15] = test: cells; format: functional, cell-based; settings: Homo sapiens, HepG2, 48 h
# MDA-MB-231 = test: cells; format: functional, cell-based; settings: Homo sapiens, MDA-MB-231, 48 h
# U-937 = test: cells; format: functional, cell-based; settings: Homo sapiens, U-937, 48 h
# K562 [16] = test: cells; format: functional, cell-based; settings: Homo sapiens, K562, 48 h
# SK-OV-3 = test: cells; format: functional, cell-based; settings: Homo sapiens, SK-OV-3, 48 h
# MDA-MB-468 = test: cells; format: functional, cell-based; settings: Homo sapiens, MDA-MB-468, 48 h
# Histone deacetylase 3 = Histone deacetylase 3 (Homo sapiens, UniProt O15379); test: Inhibition of recombinant HDAC3 (unknown origin) using Boc-Lys (acetyl)-AMC as substrate preincubated for 1 hr followed by substrate addition and measured after 2 hrs by fluorescence based analysis
# cells = format: functional, cell-based; settings: Homo sapiens, SPCA1, 48 h
# Calu-3 = test: cells; format: functional, cell-based; settings: Homo sapiens, Calu-3, 48 h
# PANC-1 = test: cells; format: functional, cell-based; settings: Homo sapiens, PANC-1, 48 h
# [17] = target: MAP kinase-interacting serine/threonine-protein kinase 1 (Homo sapiens) (UniProt Q9BUB5); test: Inhibition of MNK1 (unknown origin) at 1 uM incubated for 60 mins by HTRF assay relative to control
# [18] = target: MAP kinase-interacting serine/threonine-protein kinase 2 (Homo sapiens) (UniProt Q9HBH9); test: Inhibition of MNK2 (unknown origin) at 1 uM incubated for 60 mins by HTRF assay relative to control
# Histone deacetylase = test: Inhibition of HDAC in human HeLa cell nuclear extract using Boc-Lys(Ac)-AMC as substrate preincubated for 15 mins followed by substrate addition and measured after 60 mins by fluorescence based analysis; format: subcellular, Nucleus
# PC-3 = test: cells; format: functional; settings: Homo sapiens, time 96 hrs
# Sequence of Histone deacetylase 3 (O15379 whole entry): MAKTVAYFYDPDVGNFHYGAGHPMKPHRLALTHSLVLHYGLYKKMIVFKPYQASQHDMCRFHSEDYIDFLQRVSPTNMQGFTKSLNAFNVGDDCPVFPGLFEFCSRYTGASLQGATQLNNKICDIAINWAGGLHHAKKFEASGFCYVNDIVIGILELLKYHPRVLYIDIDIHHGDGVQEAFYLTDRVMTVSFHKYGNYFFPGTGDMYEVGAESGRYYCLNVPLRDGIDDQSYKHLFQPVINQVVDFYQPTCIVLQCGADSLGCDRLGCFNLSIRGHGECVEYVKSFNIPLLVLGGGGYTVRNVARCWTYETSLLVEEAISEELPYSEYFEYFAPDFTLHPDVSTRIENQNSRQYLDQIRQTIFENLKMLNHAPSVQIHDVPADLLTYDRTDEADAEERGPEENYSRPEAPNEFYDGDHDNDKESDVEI
# Sequence of MAP kinase-interacting serine/threonine-protein kinase 1 (Homo sapiens) (Q9BUB5 whole entry, looked up): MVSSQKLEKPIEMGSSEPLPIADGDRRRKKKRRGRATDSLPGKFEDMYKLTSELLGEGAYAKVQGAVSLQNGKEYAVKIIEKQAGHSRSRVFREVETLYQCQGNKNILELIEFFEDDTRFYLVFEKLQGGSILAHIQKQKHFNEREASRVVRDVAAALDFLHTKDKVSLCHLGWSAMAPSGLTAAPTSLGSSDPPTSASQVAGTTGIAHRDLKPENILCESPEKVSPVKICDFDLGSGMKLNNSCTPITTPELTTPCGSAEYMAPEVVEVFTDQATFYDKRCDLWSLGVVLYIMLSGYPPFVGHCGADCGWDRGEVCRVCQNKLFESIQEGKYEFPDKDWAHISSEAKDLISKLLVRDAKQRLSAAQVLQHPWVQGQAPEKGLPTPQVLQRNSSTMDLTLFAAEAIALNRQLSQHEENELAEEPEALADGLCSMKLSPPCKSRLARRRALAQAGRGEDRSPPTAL
# Sequence of MAP kinase-interacting serine/threonine-protein kinase 2 (Homo sapiens) (Q9HBH9 whole entry, looked up): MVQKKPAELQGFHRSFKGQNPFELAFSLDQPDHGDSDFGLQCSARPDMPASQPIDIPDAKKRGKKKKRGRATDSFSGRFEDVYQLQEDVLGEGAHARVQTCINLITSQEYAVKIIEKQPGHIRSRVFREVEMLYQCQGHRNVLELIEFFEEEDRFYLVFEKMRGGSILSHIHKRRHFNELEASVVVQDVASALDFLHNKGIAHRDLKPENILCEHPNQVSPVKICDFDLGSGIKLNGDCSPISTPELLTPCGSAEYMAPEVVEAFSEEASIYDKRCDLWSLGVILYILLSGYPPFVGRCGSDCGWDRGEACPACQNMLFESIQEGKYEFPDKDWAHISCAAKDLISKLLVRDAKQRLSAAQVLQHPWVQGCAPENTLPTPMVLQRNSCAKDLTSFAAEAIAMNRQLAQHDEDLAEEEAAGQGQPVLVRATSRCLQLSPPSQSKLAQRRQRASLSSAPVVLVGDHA
smiles,measurement,setting,value
C[C@@H]1CC[C@H]2[C@@H](C)C(OCC(=O)NO)C[C@@H]3O[C@]4(C)CC[C@@H]1[C@]32OO4 (some centres undefined),IC50,HL-60 [1],690 nM
same,IC50,Plasmodium falciparum [2],1.9 nM
same,IC50,NALM-6,150 nM
same,IC50,HL-60 [3],690 nM
same,IC50,[4],187 nM
same,IC50,Plasmodium falciparum [5],1.9 nM
same,IC50,K562 [6],690 nM
same,IC50,HPBALL,150 nM
same,IC50,MOLM-13,690 nM
same,IC50,Plasmodium falciparum [7],1.9 nM
O=C(NO)c1ccc(CNc2ncnc3[nH]ccc23)cc1,T/C,RPMI-8226 [8],70%
same,IC50,U-266,620 nM
same,half-life at 1 µM,[9],> 1 h
same,IC50 at 48 h,[10],> 50000 nM
same,IC50,[11],10 nM
same,IC50,RPMI-8226 [12],620 nM
same,IC50,MM1.S,620 nM
same,IC50 at 48 h,[13],> 50000 nM
Cn1cc(CCCC(=O)Nc2ccc(C(=O)NO)cc2)c2ccccc21,inhibition in vivo at 50 mg/kg,HepG2 [14],33.1%
same,IC50,HepG2 [15],160 nM
same,IC50,U-266,160 nM
same,IC50,MDA-MB-231,160 nM
same,IC50,U-937,160 nM
same,IC50,K562 [16],160 nM
same,IC50,SK-OV-3,160 nM
same,IC50,MDA-MB-468,160 nM
same,IC50,Histone deacetylase 3,13.9 nM
same,IC50,cells,160 nM
same,IC50,Calu-3,160 nM
same,IC50,PANC-1,160 nM
O=C(CCCCCCC(=O)Nc1ccc2ncnc(Nc3ccc(F)cc3)c2n1)NO,inhibition,[17],54%
same,inhibition,[18],70%
same,IC50,Histone deacetylase,780 nM
same,GI50,PC-3,2910 nM

# Reference: ChEMBL document CHEMBL5614367, “Hydroxamic acid hybrids: Histone deacetylase inhibitors with anticancer therapeutic potency” (Eur J Med Chem, 2023)
